US5264427A, “20-substituted pregnene derivatives and their use as androgen synthesis inhibitors” (priority 1992, dated 1993)
Like-named read-outs stand apart in the source and are kept apart here.

How the values were obtained:
Assay type in all cases: biochemical
[1] = biological target: T1, rat testicular 17(alpha)-hydroxylase/C17,20-lyase (Rattus norvegicus, UniProt P11715); assay: Hydroxylase/lyase assay, rat testicular homogenates, [21-14C]progesterone (Example 4, Table 3); conditions: 0.75 h
T1 construct: rat testicular homogenates (prepared from 220-250g adult male Sprague-Dawley rats); from tissue; host or cells: testes of adult male Sprague-Dawley rats, homogenate
T1 sequence (P11715 1-507): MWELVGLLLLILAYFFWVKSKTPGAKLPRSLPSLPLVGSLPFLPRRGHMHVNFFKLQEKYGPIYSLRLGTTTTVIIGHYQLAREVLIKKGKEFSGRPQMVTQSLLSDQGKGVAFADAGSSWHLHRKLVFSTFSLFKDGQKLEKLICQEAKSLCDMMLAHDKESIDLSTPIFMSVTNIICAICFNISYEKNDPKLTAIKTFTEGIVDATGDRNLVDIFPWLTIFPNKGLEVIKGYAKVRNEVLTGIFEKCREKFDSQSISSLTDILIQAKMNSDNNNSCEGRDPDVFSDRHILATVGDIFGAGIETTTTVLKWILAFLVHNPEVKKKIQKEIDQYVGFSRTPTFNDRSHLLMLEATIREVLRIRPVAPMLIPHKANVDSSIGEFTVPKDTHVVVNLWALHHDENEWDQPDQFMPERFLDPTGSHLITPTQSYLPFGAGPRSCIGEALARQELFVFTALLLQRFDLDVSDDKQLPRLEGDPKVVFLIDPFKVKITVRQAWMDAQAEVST
Experimental: The assay was performed by incubation of rat testicular homogenates (prepared from 220-250g adult male Sprague-Dawley rats, approx. 3.5 mg protein) with [21-^14 C]progesterone (40uM, 5×10^4 dpm), NADPH generating system and candidate inhibitors in phosphate buffer (pH 7.4, total volume 500ul) under oxygen for 45 min at 37° C. Two ml of choloroform was added to each tube to stop the reaction. The steriods were extracted with chloroform and the aqueous phase was treated with charcoal. The side chain cleavage product [2-^14 C]acetic acid in the aqueous phase was mixed with 3a70B counting cocktail and counted on the Rack Beta II liquid scintillation counter. The enzyme activity was determined from the conversion of progesterone P4 to [2-^14 C]acetic acid.

[2] = biological target: T2, 17(alpha)-hydroxylase/C17,20-lyase (Rattus norvegicus, UniProt P11715); assay: Hydroxylase/lyase assay, rat testis homogenates, [21-14C]-progesterone side-chain cleavage (Examples 2 and 3, Table 2); conditions: progesterone 40 microM, 45 min
T2 construct: with rat testis homogenates (2.7 mg protein in 0.5 ml phosphate buffer); from tissue; host or cells: rat testis homogenate
T2 sequence (P11715 1-507): T1 sequence (P11715 1-507)
Experimental: Compounds I-16 and I-25 were synthesized according to known procedures. The compounds were then assayed for their ability to inhibit the 17(alpha)-hydroxylase/C17,20 -lyase enzyme and the 5(alpha)-reductaseenzyme. The hydroxylase/lyase assay was carried out by incubation of [21-^14 C]-progesterone (40 microM, 70,000 dpm) and candidate inhibitors with rat testis homogenates (2.7 mg protein in 0.5 ml phosphate buffer), NADPH generating system under oxygen for 45 minutes. The enzyme activity was measured according to the conversion of progesterone to the product of C17,20 -side chain cleavage ([2-^14 C]-acetic acid). […] The results were based on the TLC separation.

C17,20-lyase = biological target: T3, C17,20-lyase (Rattus norvegicus, UniProt P11715); assay: C17,20-lyase assay, rat testicular microsomes (Example 1, Table 1); conditions: rat testicular microsomes, 17(alpha)-hydroxyprogesterone substrate, 30 min, 37 C; N.I. = no inhibition
T3 construct: approximately 1 mg rat testicular microsomal protein in 450 microliters phosphate buffer; from tissue; host or cells: testes of adult male Sprague-Dawley rats (Charles River), microsomal fraction
T3 sequence (P11715 1-507): T1 sequence (P11715 1-507)
Experimental: (§1) Testes were obtained from 220°-250g adult male Sprague-Dawley rats (Charles River), immediately frozen in liquid nitrogen and stored at -70° C. After thawing in the ice bath, the testes were minced and homogenized in 0.25M sucrose (1:4 w/v), then centrifuged at 12,000×gfor 30 min and the resulting supernatant centrifuged at 105,000×g for one hour. The supernatant was then decanted and the pellet containing the microsomes was resuspended in 0.1M sodium phosphate buffer (pH 7.4) (2.5g wet weight of tissue/ 2 ml buffer). All the above procedures were performed at 4C. The microsomal fraction was stored at -70C. Just before use, microsomes were diluted to the concentration of 1.25 g wet weight of tissue/10 ml phosphate buffer.
(§2) C^17,20 -Lyase: The procedure for measurement of the C17,20 -lyase was similar to the procedure for the 17(alpha)-hydroxylase, except that the substrate was 17(alpha)-hydroxy-[[1,2,6,7-^3 H]-progesterone (various concentration, 10^5 dpm) and recovery markers were [4-^14 C]-labelled steroids. Carrier steroids (170HP4, A and T) were also added to locate the product areas on the TLC plates. The enzyme activity was determined from the percent conversion of 17(alpha)-hydroxy-[1,2,6,7-3H]-progesterone to A and T.
The purity of each steroid on the TLC was confirmed by two methods. First, the percent conversion of each compound in a half amount of the extract from one incubation were compared after separation of TLC and HPLC. The HPLC procedure has been described in detail previously. The solvent system used was methanol/acetonitrile/water (15.6:36.4:48). […] Secondly, after the first separation by TLC in solvent system A (hexane/ethyl acetate 65:35), the eluted steroids were chromatographed in solvent system B (chloroform/acetonitrile, 85:15).

[3] = biological target: T4, 17(alpha)-hydroxylase/17,20-lyase enzyme (Rattus norvegicus, UniProt P11715); assay: 17(alpha)-hydroxylase/17,20-lyase inhibition, rat testicular microsomes (Example 1); conditions: result in words
T4 sequence (P11715 1-507): T1 sequence (P11715 1-507)
Experimental: as §1
The incubation was stopped by cooling the mixture in an ice bath and adding 2 ml ether to each incubation tube. The ^3 H-labelled steriods (progesterone P4; 17(alpha)-hydroxyprogesterone 170HP4, androstenedione A and testosterone T, 8,000dpm each) were added as recovery markers and the steroids were extracted with ether (2 ml×3). The ether was evaporated with air. Steroid carriers (P4, 17-0HP4, A and T, 4 micrograms each) were added to the extracts which were then applied to thin layer chromatography (TLC) plates for separation of the steroids. […] After evaporating the ether, the steroids were dissolved in counting cocktail and the radioactivity measured. The recovery of steroids calculated from the ^3 H-labelled markers was between 80 to 90 percent and the enzyme activity was determined from the percentage conversion of [4-C^14 ]-progesterone to 170HP4, A and T.
as §2, with “Carrier steroids (170HP4, A and T) were also added to locate the product areas on the TLC plates.” left out

17(alpha)-hydroxylase = biological target: T5, 17(alpha)-hydroxylase (Rattus norvegicus, UniProt P11715); assay: 17(alpha)-hydroxylase assay, rat testicular microsomes (Example 1, Table 1); conditions: rat testicular microsomes, progesterone substrate, 30 min, 37 C; N.I. = no inhibition
T5 construct: approximately 1 mg rat testicular microsomal protein in 450 microliters phosphate buffer; from tissue; host or cells: testes of adult male Sprague-Dawley rats (Charles River), microsomal fraction
T5 sequence (P11715 1-507): T1 sequence (P11715 1-507)
Experimental: as §1
The incubation was stopped by cooling the mixture in an ice bath and adding 2 ml ether to each incubation tube. The ^3 H-labelled steriods (progesterone P4; 17(alpha)-hydroxyprogesterone 170HP4, androstenedione A and testosterone T, 8,000dpm each) were added as recovery markers and the steroids were extracted with ether (2 ml×3). The ether was evaporated with air. Steroid carriers (P4, 17-0HP4, A and T, 4 micrograms each) were added to the extracts which were then applied to thin layer chromatography (TLC) plates for separation of the steroids. After development for 1.5 hours in hexanes/ethyl acetate, 65:35(v/v), the steroids were located by UV (254 nm) absorption, scraped off and eluted into scintillation vials with ether. After evaporating the ether, the steroids were dissolved in counting cocktail and the radioactivity measured. The recovery of steroids calculated from the ^3 H-labelled markers was between 80 to 90 percent and the enzyme activity was determined from the percentage conversion of [4-C^14 ]-progesterone to 170HP4, A and T.
The purity of each steroid on the TLC was confirmed by two methods. First, the percent conversion of each compound in a half amount of the extract from one incubation were compared after separation of TLC and HPLC. The HPLC procedure has been described in detail previously. The solvent system used was methanol/acetonitrile/water (15.6:36.4:48). The flow rate was 1 ml/min and pressure 2200 psi, the retention time of these steroids was P4 38.3 min, 170HP4 15.93 min, A 14.33 min, and T 11.43 min, respectively. Secondly, after the first separation by TLC in solvent system A (hexane/ethyl acetate 65:35), the eluted steroids were chromatographed in solvent system B (chloroform/acetonitrile, 85:15).
^1 Incubation of [4^14 Cprogesterone (various concentration,
microsome (approximately 1 mg protein) and NADPH generating system was
carried out at 37 C. under O2 for 30 min. The apparent Km for this

[4] = [I] = 10 × [S], progesterone 40uM, pH 7.4, 45 min, 37 C, read-out: Inhibition of 17(alpha)-hydroxylase/C17,20-lyase (%), [I] = 10 × [S]
[5] = [I] = [S], progesterone 40uM, pH 7.4, 45 min, 37 C, read-out: Inhibition of 17(alpha)-hydroxylase/C17,20-lyase (%), [I] = [S]
[6] = pH 7.4, read-out: Inhibition of 17(alpha)-hydroxylase/C17,20-lyase (%), [I] = 10 × [S]
[7] = pH 7.4, read-out: Inhibition of 17(alpha)-hydroxylase/C17,20-lyase (%), [I] = [S]

C[C@H](C=NN(C)C)[C@H]1CC[C@H]2[C@@H]3CCC4=CC(=O)CC[C@]4(C)[C@H]3CC[C@]12C [Compound I-15, 4-pregnen-3-oxo-20(beta)-carboxaldehyde N,N-dimethyl hydrazone]
inhibition at 400 µM [1, 4]: 52.7% | inhibition at 40 µM [1, 5]: 22.4%

CC(=NN)[C@H]1CC[C@H]2[C@@H]3CC=C4C[C@@H](O)CC[C@]4(C)[C@H]3CC[C@]12C [Compound I-12]
inhibition at 400 µM [1, 4]: 25.9% | inhibition at 40 µM [1, 5]: 8.55%

CC(=NO)[C@H]1CC[C@H]2[C@@H]3CC=C4C[C@@H](O)CC[C@]4(C)[C@H]3CC[C@]12C [Compound I-1]
inhibition at 400 µM [1, 6]: 29.2% | inhibition at 40 µM [1, 7]: 15%

C#C[C@H]1CC[C@H]2[C@@H]3CC=C4C[C@@H](O)CC[C@]4(C)[C@H]3CC[C@]12C [Compound I-29]
inhibition at 400 µM [1, 6]: 3.84% | inhibition at 40 µM [1, 7]: 8.26%

C[C@]12CC[C@H]3[C@@H](CC=C4C[C@@H](O)CC[C@@]43C)[C@@H]1CC[C@@H]2[C@]1(C)CO1 [Compound I-7, (20R)-20,21-epoxy-20-methyl-5-pregnen-3(beta)ol]
inhibition at 400 µM [1, 6]: 28.3% | inhibition at 40 µM [1, 7]: 21.6%

CC(=NO)C1=CC[C@H]2[C@@H]3CC=C4C[C@@H](O)CC[C@]4(C)[C@H]3CC[C@]12C [Compound I-5]
inhibition at 400 µM [1, 6]: 51.8% | inhibition at 40 µM [1, 7]: 25.2%

CC(=O)[C@@]12O[C@@H]1C[C@H]1[C@@H]3CCC4=CC(=O)CC[C@]4(C)[C@H]3CC[C@@]12C [Compound I-18]
inhibition at 400 µM [1, 4]: 64.2% | inhibition at 40 µM [1, 5]: 26.5%

C[C@H](N)[C@H]1CC[C@H]2[C@@H]3CC=C4C[C@@H](O)CC[C@]4(C)[C@H]3CC[C@]12C [Compound I-9]
inhibition at 400 µM [1, 6]: 27.3% | inhibition at 40 µM [1, 7]: 13.6%

CC(=O)OC1=CC2=CC[C@H]3[C@@H]4CC[C@H]([C@H](C)C#N)[C@@]4(C)CC[C@@H]3[C@@]2(C)CC1 [Compound I-24]
inhibition at 400 µM [1, 4]: 67.2% | inhibition at 40 µM [1, 5]: 33.6%

CCN(CC)C(=O)[C@H]1CC[C@H]2[C@@H]3CC[C@H]4N(C)C(=O)CC[C@]4(C)[C@H]3CC[C@]12C [Compound 4-MA, N,N-diethyl-4-methyl-3-oxo-4-aza-5(alpha)-androstane-17(beta)-carboxyamide, reference compound]
% Inhibition of 17(alpha)hydroxylase/lyase, [I] = 10 × [S] [2]: No inhibition | % Inhibition of 17(alpha)hydroxylase/lyase, [I] = [S] [2]: No inhibition | C17,20-lyase Ki (C17,20-lyase): N.I. | inhibition of the 17(alpha)-hydroxylase/17,20-lyase enzyme [3]: did not show any inhibition | 17(alpha)-hydroxylase Ki (17(alpha)-hydroxylase): N.I

C[C@H](C=O)[C@H]1CC[C@H]2[C@@H]3CCC4=CC(=O)CC[C@]4(C)[C@H]3CC[C@]12C [Compound I-16, 4-pregnen-3-one-20(beta)carboxaldehyde]
% Inhibition of 17(alpha)hydroxylase/lyase, [I] = 10 × [S] [2]: 89.95% | % Inhibition of 17(alpha)hydroxylase/lyase, [I] = [S] [2]: 61.76%

C[C@@H](N)[C@H]1CC[C@H]2[C@@H]3CC=C4C[C@@H](O)CC[C@]4(C)[C@H]3CC[C@]12C [Compound I-10]
inhibition at 400 µM [1, 6]: 33.8% | inhibition at 40 µM [1, 7]: 8.54%

C=C[C@H]1CC[C@H]2[C@@H]3CC=C4C[C@@H](O)CC[C@]4(C)[C@H]3CC[C@]12C [Compound I-28]
inhibition at 400 µM [1, 6]: 18.3% | inhibition at 40 µM [1, 7]: 13.5%

CC(C#N)=C1CC[C@H]2[C@@H]3CCC4=CC(=O)CC[C@]4(C)[C@H]3CC[C@]12C [Compound I-26, 20-cyano-4,17(20)-pregnadien-3-one]
inhibition at 400 µM [1, 6]: 89.7% | inhibition at 40 µM [1, 7]: 53.5%

C[C@]12CC[C@H]3[C@@H](CC=C4C[C@@H](O)CC[C@@]43C)[C@@H]1CC[C@@H]2[C@@]1(C)CO1 [Compound I-8, (20S)-20,21-epoxy-20-methyl-5-pregnen-3(beta)-ol]
inhibition at 400 µM [1, 6]: 29.4% | inhibition at 40 µM [1, 7]: 16.3%

CC(O)(C#N)[C@H]1CC[C@H]2[C@@H]3CCC4=CC(=O)CC[C@]4(C)[C@H]3CC[C@]12C (some centres unmarked) [Compound I-25, 20-cyano-20-hydroxy-4-pregnen-3-one]
% Inhibition of 17(alpha)hydroxylase/lyase, [I] = 10 × [S] [2]: 89.32% | % Inhibition of 17(alpha)hydroxylase/lyase, [I] = [S] [2]: 50.63%

C[C@]12CCC(=O)C(O)=C1CC[C@@H]1[C@@H]2CC[C@]2(C)C(=O)CC[C@@H]12 [Compound 4-OHA, 4-hydroxy androstenedione, reference compound]
inhibition of the 17(alpha)-hydroxylase/17,20-lyase enzyme [3]: did not show any inhibition

CC(=NN(C)C)C1=CC[C@H]2[C@@H]3CC=C4C[C@@H](O)CC[C@]4(C)[C@H]3CC[C@]12C [Compound I-14, 5,16-Pregnadien-3(beta)-ol-20-one N,N-dimethyl hydrazone]
inhibition at 400 µM [1, 4]: 2.34% | inhibition at 40 µM [1, 5]: 10.2%
